Test results reported in ChEMBL document CHEMBL1155673, “Yanucamides A and B, two new depsipeptides from an assemblage of the marine cyanobacteria Lyngbya majuscula and Schizothrix species” (J Nat Prod, 2000).

System: Artemia salina
Experiment: Toxicity against Artemia salina after 24 hrs
Type: organism-based
Settings: in vivo

Row | SMILES | LD50 [ppm]
1 | C#CCCCC1OC(=O)CCNC(=O)[C@@H](Cc2ccccc2)N(C)C(=O)[C@H](C(C)C)OC(=O)[C@H](C(C)C)NC(=O)C1(C)C (some centres not stated) [YANUCAMIDE A] | 5
2 | C#CCCCC1OC(=O)CCNC(=O)[C@@H](Cc2ccccc2)N(C)C(=O)[C@H](C(C)C)OC(=O)[C@H]([C@H](C)CC)NC(=O)C1(C)C (some centres not stated) [YANUCAMIDE B] | 5
